Here are results for 83 compounds from a melting point compilation (Tetko et al.; mined from patent text by program, amines drawn as free bases though some values may be those of a salt).

The term melting point denotes the temperature of the solid-liquid transition. The compound `CCCCc1ccc(C(=O)Nc2ccc3cc(CN4CCCC4)cnc3c2C)cc1` gave a melting point of 131 °C.
On to `CCCCCCN(Cc1cccnc1)C(Nc1ccc(OC)cc1OC)=C1C(=O)OC(C)(C)OC1=O`, for which the melting point lay in the range of 154 to 155 °C.
On to `COc1cc(CC(=O)NCCOc2ccc(C(=O)O)cc2[N+](=O)[O-])ccc1NC(=O)Nc1ccccc1C`, for which the melting point is 112 to 115 °C.
With `CC(=O)c1ccc(-n2sc3ccccc3c2=O)cc1` the figure was 183 to 185 °C.
With `CC(C)(C)NC(=O)[C@@H]1CCCN1C(=O)[C@@H](O)[C@H](Cc1ccccc1)NC(=O)[C@H](CC(N)=O)NC(=O)COC1CCC(NC(=O)OCc2ccccc2)CC1` (stereo partly drawn) the figure was 109 to 114 °C.
`CC[C@H](C)[C@H](NC(=O)N(C)Cc1ccccn1)C(=O)N[C@@H](Cc1ccccc1)[C@@H](O)C[C@H](Cc1ccccc1)NC(=O)OCc1cncs1` came in with a melting point of 66 to 69 °C.
Then `CCC(=O)N[C@@H](C)C(=O)N1CCC[C@H]1C(=O)NC1CCCCCC1`, with 155 to 156 °C; and `CCOC(OCC)c1cc(NC(c2ccccc2)(c2ccccc2)c2ccccc2)c(F)c(C2CCCO2)n1` (stereo not drawn), with 149 to 150 °C.
Consider `CCCc1nc2c(N)nc3cc(Oc4ccc(N)cc4)ccc3c2n1CC(C)C`, for which the melting point lay in the range of 190 to 191 °C.
Turning to `ClCCCCCOc1ccccc1OCCCCCCl`, the melting point is 61 °C.
`CN(C)CCSc1sc(-c2cc[nH]n2)c2c1C(=O)CC(C)(C)C2` had a melting point of 212 to 214 °C.
In the case of `COC(=O)c1ccccc1Sc1cccc(O)c1`, the melting point lay within 77 to 78.5 °C.
The compound `C/C(=C\c1ccncc1)c1ccc2c(c1)C(C)(C)CCC2(C)C` yielded a melting point of 84 to 85 °C.
Then `CC1(C)[C@@H](CN2CCCCC2)CC[C@@]1(C)NCC(=O)N1C[C@@H](F)C[C@H]1C#N`, with 100 to 103 °C.
Then `CC(C)(C)ON=Cc1ncn2c1[C@@H]1CCCN1C(=O)c1c(Cl)cccc1-2`, with 215 to 216 °C; and `COC(=O)c1cc(C(=O)c2ncc3ccc(C(=O)O)cn23)ccc1[N+](=O)[O-]`, with 290 °C.
The compound `O=C(O)C(Cl)Cc1ccccc1[N+](=O)[O-]` (stereo not drawn) gave a melting point of 108 to 109 °C.
With `O=C1N(N2CCCCC2)c2ccccc2C1(Cc1ccccc1)Cc1ccccc1` the figure was 94 to 96 °C; with `CCc1cccc(C)c1NC(=O)N=C1NCCN1`, 185 to 187 °C; with `CCOC(=O)C1=C(C(=O)O)CC(C(=O)O)([N+](=O)[O-])C=C1` (stereo not drawn), 189 to 191 °C.
Then `CC(=O)NC(CSCc1ccc(-c2nc(-c3ccccc3)cc(-c3ccccc3)n2)cc1)C(=O)O` (stereo not drawn), with 223 to 226 °C.
As to `CCOC(=O)c1[nH]c2cc(Br)c(Cl)cc2c1-c1ccccc1`, the melting point was 205 to 206 °C.
With `CCCSc1cc(-c2ccc(C(F)(F)F)cc2)c(F)cc1[N+](=O)[O-]` the figure was 57 to 59 °C.
With `Cc1cccc(-c2[nH]c(C(C)C)nc2-c2cccc(-c3cccnc3)c2)n1` the figure was 74 to 77 °C.
Then `ClC(Cl)(Cl)C1NCC(c2ccccc2)O1` (stereo not drawn), with 58 to 64 °C; and `CCN1C(=O)C(C)(C)c2ccc(C(=O)Nc3ccncc3)cc21`, with 209 to 211 °C.
`CCCCCCCCCCCCCCCCOC(=O)NCCN1CCCCC1` registered a melting point of 48 °C.
With `CCc1ccccc1-c1nc(-c2cccc(OC)c2)nn1C(=O)Nc1ccc(C)cc1` the figure was 141 to 142 °C; with `Cc1[nH]c(=O)ccc1C(=O)c1ccc(C#N)cc1`, 172 to 175 °C.
With `O=CCc1ccc2c(c1[N+](=O)[O-])C(=O)c1ccccc1C2=O` the figure was 192 °C.
`COc1cc(Nc2c(C#N)cnc3sc(-c4ccc(CN5CCOCC5)cc4)cc23)c(Cl)cc1Cl` showed a melting point of 106 to 108 °C.
Then `CC(C)(COC(=O)COc1ccc(C(=O)CN2Cc3cc(C#N)ccc3C2=O)cc1)NS(=O)(=O)c1cccnc1`, with 190 to 192 °C.
With `CCCN(CCC)Cc1csc(-c2ncn3c2[C@@H]2CCN2C(=O)c2c(Cl)cccc2-3)n1` the figure was 200 to 201 °C; with `O=C(NC1=CCN(CCc2ccccc2)CC1)c1ccccc1`, 115 to 117 °C; with `O=C(SCC1C(=O)OCC1c1ccccc1)c1ccccc1F` (stereo not drawn), 92 to 94 °C.
Then `CCOC(=O)c1ccc(-c2coc(-c3cccc(C(F)(F)F)c3)n2)cc1`, with 132 to 133 °C; and `CCOP(=O)(/C=C/c1cn(-c2ccccc2)nc1OCc1ccc(OCc2nc(-c3cccc(C#N)c3)oc2C)c(OC)c1)OCC`, with 147 to 148 °C; and `CC(C)c1nn(-c2ccc(C(F)(F)F)cn2)cc1CCCOc1ccccc1CC(=O)O`, with 132 to 133 °C.
The compound `Cn1nc(-c2cccc(-n3ncc4cc(C(C)(C)C)cc(F)c4c3=O)c2CO)cc(Nc2cnc([C@H](O)CO)cn2)c1=O` came in with a melting point of 218 to 224 °C.
Then `O=C1CC2CCc3ccccc3C2=NN1c1ccccc1O` (stereo not drawn), with 221 to 222 °C; and `O=C(O)C1=C2OCOc3cccc1c32`, with 125 °C; and `COC(=O)Cc1c(C(=O)OC)ccn1CCI`, with 137 to 138 °C.
With `Cc1c(CO)c2c(c(C)c1NC(=O)NC(C)(C)C)C(c1ccc(C(C)C)cc1)CO2` (single isomer, unassigned; (+)) the figure was 187 to 188 °C.
Then `Cc1ccc(C(=O)Nc2cc(N3CCN(C)CC3)cc(C(F)(F)F)c2)cc1Nc1nccc(-c2cccnc2)n1`, with 192 to 194 °C.
Compound `Fc1cccc(Cl)c1-c1c(Cl)cc(-n2cncn2)nc1Cl` displayed a melting point of 210 °C.
Then `CN(C(=O)OCc1ccccc1)[C@@H](CCC(=O)O)C(=O)O`, with 97 to 98 °C; and `Cc1csc2ccc3[nH]c4c(c3c12)CN(C(C)C)CC4`, with 199 to 203 °C.
Then `Cc1cc(C)c2c(c1)S(=O)(=O)NCN2`, with 160 to 165 °C; and `CC(Cc1cccc(N)c1)(NC=O)c1ccccc1` (stereo not drawn), with 114 to 115 °C; and `CCCCc1nn(C)c2c1CCc1c(C(N)=O)sc(Oc3ccc4c(c3)OCO4)c1-2`, with 161 to 162 °C.
Then `CCCCc1ncc(/C=C2\C(=O)NC(=O)N2c2ccccc2)n1Cc1ccc(C(=O)O)cc1`, with 286 to 290 °C; and `COCCOc1cc(NC(=O)OC(C)(C)C)c([N+](=O)[O-])cc1I`, with 109 to 111 °C; and `N=c1sc2cc(OC(F)(F)F)ccc2n1CCCO`, with 106 °C.
Take `CN(Cc1cccc2c1CN(C1CCC(=O)NC1=O)C2=O)C(=O)c1ccc(Cl)c(Cl)c1` (stereo not drawn): the melting point lay within 228 to 230 °C.
For the compound `COC(=O)c1ccc(N2C(=O)C(O)=C(C(=O)c3ccc(C)cc3)C2c2ccc(C(C)C)cc2)nc1` (stereo not drawn), the melting point was in the range of 264 to 266 °C.
With `COc1cc2c(cc1CCNC(=O)Cc1ccccc1)CCC2` the figure was 135 °C; with `CCNc1nc(C)c(-c2ccnc(Nc3ccc(N4CCNCC4)cc3)n2)s1`, 245 to 247 °C; with `CC(C)(C)OC(=O)N[C@@H](CC(=O)OCc1ccccc1)C(=O)NCCc1ccc(OCC(=O)OCc2ccccc2)cc1`, 178 to 180 °C.
With `CCOc1ccc2c(c1)C(C)(c1ccccc1Cl)C(=O)N2S(=O)(=O)c1ccc(NC(=O)N(CC)CC)cc1OC` (stereo not drawn) the figure was 137 °C; with `COc1cc(NC2=NCC(c3ccccc3)O2)ccc1-c1cnco1` (stereo not drawn), 130 to 132 °C.
Then `CS(=O)(=O)c1ccccc1S(=O)(=O)Nc1cccc2cc(C3=NCCS3)[nH]c12`, with 211 to 212 °C; and `CC(C)(C)c1cc2c(c(C(=O)Nc3ccc(S(=O)(=O)C(F)(F)F)cc3Cl)c1O)CCC2`, with 172 to 173 °C; and `Cc1cnc2c(NC(=O)c3c(Cl)cccc3Cl)cccc2c1Cl`, with 216 to 227 °C.
In turn, `CCN1CCCC1CNC(=O)c1nc(NC)sc1-c1ccncc1` (stereo not drawn) displayed a melting point of 76 to 78 °C.
With `NC(=NCC(F)(F)F)Nc1nc(CCCCNc2ncccn2)cs1` the figure was 173 to 175 °C; with `CC1CCN(C)c2nc3[nH]c(=O)cc(C(F)(F)F)c3cc21` (stereo not drawn), 225 to 230 °C; with `COc1c(F)cccc1C(=O)Cl`, 71 to 73 °C.
With `CCCCC(=O)c1ccc(NC(C)=O)cc1O` the figure was 113 °C.
Then `O=C1C(c2cc(OCc3ccccc3)ccc2O)c2ccccc2N1Cc1ccc(Cl)s1` (stereo not drawn), with 173 to 175 °C; and `NC(=O)CCC(C(=O)O)N1C(=O)c2cccc([N+](=O)[O-])c2C1=O` (stereo not drawn), with 182 to 184 °C; and `CN1CCN(CCc2ccc(Nc3ncc4c(n3)-c3ccccc3C(c3ccc(Cl)c(Cl)c3)C4)cc2)CC1` (stereo not drawn), with 119 to 121 °C.
Take `Nc1cc(N2CCC(O)CC2)c(F)cc1[N+](=O)[O-]`: the melting point is 238 to 239 °C.
With `Cc1nc(C)c(Cl)c(NCc2nccc(OCCCCSCCn3c([N+](=O)[O-])cnc3C)c2C)n1` the figure was 114 to 117 °C.
Then `O=C(Nc1cccc(S(=O)(=O)NCCc2ccncc2)c1)c1cnn2c(C(F)(F)F)cc(-c3ccc(C(F)(F)F)cc3)nc12`, with 236 °C.
For `CC(C)(C)c1ncc(C(=C(Cl)Cl)C(F)(F)F)cn1`, the melting point was 58 °C.
With `C=CCOc1ccc(C[C@H](NC(=O)OC(C)(C)C)C(=O)N[C@H](C(=O)N[C@@H](CC=C)C(=O)OC)C(C)C)cc1` the figure was 106 to 108 °C; with `CC(Oc1ccc(F)cc1F)(C(=O)Nc1nccs1)c1ccc(S(C)(=O)=O)cc1` (stereo not drawn), 89 to 90 °C; with `COCCOCOc1c(C(C)(C)C)cc(-c2ccc(C#N)c(C#N)c2)cc1C(C)(C)C`, 130 to 131 °C.
Then `CNC(=O)C(=O)c1ccccc1COc1ccc(-c2ccccc2)cc1`, with 144 to 145 °C; and `O=C(O)CCc1cn(Cc2ccc(OCc3csc(-c4ccccc4)n3)cc2)nc1-c1cccs1`, with 133 to 134 °C; and `O=C1CC[C@@H](c2ccccc2)[C@H](c2ccccc2)N1CO` (relative stereo), with 127 to 129 °C.
With `COc1cc2ncnc(N3CCN(C(=O)Nc4cccnc4)CC3)c2cc1OC` the figure was 208 to 209 °C.
Take `CCOC(=O)C1=C(Cl)/C(=N/OS(C)(=O)=O)CC(c2ccc(Cl)cc2F)N1` (stereo not drawn): the melting point lay in the range of 63 to 64 °C.
